Measurements taken from paper PMC4052943 (BioMed Research International, 2014).
Where two headings read alike, the source gives them in different places.

Columns and labels:
[1] = test system: Salmonella typhimurium TA98
Procedure: (§1) In the preincubation experiment, test compounds and mutagen, each having a volume of 0.1 mL of varying concentrations, were preincubated at 37°C for 30 min and then 0.1 mL of 1 × 10^7 CFU/mL density of the bacterial culture was added, followed by the addition of 2.5 mL of top agar at 45°C (containing 0.5% NaCl and 0.6% agar) supplemented with 0.5 mM histidine-biotin. […] The combined solutions were vortexed and poured onto minimal glucose plates (40% glucose solution and Vogel Bonner medium). The plates were incubated at 37°C for 48 h and the numbers of histidine-independent revertants colonies were scored.
(§2) Survival of the bacteria was routinely monitored for each experiment. Parallel controls were run with compounds alone at all concentrations to test the possible toxicity. The concentrations of the test samples for investigating the antimutagenicity were 50, 100, 200, and 500 μM. […] All the test samples and mutagens were dissolved in DMSO (final conc., 0.01%). […] Plates were set up in triplicate for each concentration and the entire experiment was repeated three times. Inhibition of mutagenicity was expressed as percentage decrease of reverse mutation and calculated as (1) Percent inhibition=[(a−b)/(a−c)]×100, where a = number of histidine revertants induced by mutagen, b = number of histidine revertants induced by mutagen in the presence of test compound, and c = number of revertants induced in negative control.

[2] = test system: Salmonella typhimurium TA100
Procedure: as §1, §2

[3] = test system: BP-induced DNA adducts (rat liver microsomes, st-DNA); assay: Microsomal BP-DNA adducts, 32P-postlabeling; format: biochemical; details: for BP-induced DNA adducts: BP 1 μM, rat liver microsomes, st-DNA
Procedure: st-DNA (300 μg/mL) was preincubated with 50 mM Tris-HCl (pH 7.5), 1 mM MgCl2, 2.5 mM glucose-6-phosphate, 1 U/mL G6PDH, 0.5 mM NADP+, and α-naphthoflavone-induced rat liver microsomal proteins (1 mg/mL) in 1 mL for 10 min, in the presence of vehicle alone and PC and EA at 20 and 40 μM. […] The incubation was continued for another 30 min at 37°C and then reaction was terminated by the addition of EDTA and centrifugation (9,000 g; 10 min). DNA was isolated from the supernatant by removal of RNA and proteins by digestions with RNases A and T1 and proteinase K and a series of extractions with phenol, phenol: Sevag (chloroform : isoamyl alcohol, 24 : 1), and Sevag, followed by precipitation of the DNA with ethanol. The DNA concentration was estimated spectrophotometrically.
DNA adducts were analyzed by ^32P-postlabeling as described earlier. Briefly, 10 μg of DNA was digested with micrococcal nuclease and spleen phosphodiesterase (MN/SPD). Before further treatment with nuclease P1 to enrich DNA adducts, an aliquot was removed for evaluation of normal nucleotide levels. DNA adducts and normal nucleotides were labelled with [γ-^32P]ATP and T4 polynucleotide kinase. Labelled adducts were separated by multidirectional polyethyleneimine (PEI)-cellulose TLC using the following solvents: D1, 1.0 M sodium phosphate, pH 6.0; D3, 4 M lithium formate/7 M urea, pH 3.5; D4, 4 M ammonium hydroxide/isopropanol (1 : 0.9); and D5, 1.7 M sodium phosphate, pH 6.0. Normal nucleotides were resolved in 180 mM sodium phosphate, pH 6.0, by one-directional PEI-cellulose TLC. DNA adducts and normal nucleotides were detected and quantified by Packard InstantImager.

[4] = test system: Salmonella typhimurium TA100; assay: Ames antimutagenicity assay (preincubation); details: Salmonella enterica, TYPHIMURIUM;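 further: compound and mutagen preincubated together 30 min at 37°C before bacteria added, then plates incubated 48 h at 37°C, inhibition relative to mutagen-alone revertants after subtracting the negative control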
Procedure: as §1, §2

For `O=C1O[C@H]2[C@@H]3OC(=O)c4cc(O)c(O)c(O)c4-c4c(O)c(O)c5oc(=O)c6c(c(O)c(O)c7oc(=O)c4c5c76)-c4c(cc(O)c(O)c4O)C(=O)OC[C@H]3OC(O)[C@@H]2OC(=O)c2cc(O)c(O)c(O)c2-c2c1cc(O)c(O)c2O` (mixture of isomers) [Punicalagin], the “Number of His+ revertants colonies/plate” value ([1]; Salmonella typhimurium) was 31.0 ± 1.7 colonies/plate, the “Number of His+ revertants colonies/plate” value ([1]; TA 98, 50 μM alone (negative control), 2AF tables) was 40.7 ± 2.9 colonies/plate and the “Number of His+ revertants colonies/plate” value ([1]; TA 98, 50 μM alone (negative control), BP tables) was 40.7 ± 2.9 colonies/plate. The “Number of His+ revertants colonies/plate” value ([1]; TA 98, 50 μM alone (negative control), MMS tables) was 42.3 ± 1.8 colonies/plate, the “Number of His+ revertants colonies/plate” value ([1]; TA 98, 50 μM alone (negative control), NaN3 tables) was 42.3 ± 1.8 colonies/plate and the “Number of His+ revertants colonies/plate” value ([1]; TA 98, 100 μM alone (negative control), 2AF tables) was 36.3 ± 1.8 colonies/plate. For the same compound, the “Number of His+ revertants colonies/plate” value ([1]; TA 98, 100 μM alone (negative control), BP tables) was 36.3 ± 1.8 colonies/plate, the “Number of His+ revertants colonies/plate” value ([1]; TA 98, 100 μM alone (negative control), MMS tables) was 35.7 ± 1.8 colonies/plate and the “Number of His+ revertants colonies/plate” value ([1]; TA 98, 100 μM alone (negative control), NaN3 tables) was 35.7 ± 1.8 colonies/plate. The “Number of His+ revertants colonies/plate” value ([1]; TA 98, 250 μM alone (negative control), BP tables) was 31.0 ± 1.7 colonies/plate, the “Number of His+ revertants colonies/plate” value ([1]; TA 98, 250 μM alone (negative control), MMS tables) was 30.0 ± 1.2 colonies/plate and the “Number of His+ revertants colonies/plate” value ([1]; TA 98, 250 μM alone (negative control), NaN3 tables) was 30.0 ± 1.2 colonies/plate. For the same compound, the “Number of His+ revertants colonies/plate” value ([1]; TA 98, 500 μM alone (negative control), 2AF tables) was 22.3 ± 1.8 colonies/plate, the “Number of His+ revertants colonies/plate” value ([1]; TA 98, 500 μM alone (negative control), BP tables) was 22.3 ± 1.8 colonies/plate and the “Number of His+ revertants colonies/plate” value ([1]; TA 98, 500 μM alone (negative control), MMS tables) was 27.3 ± 2.0 colonies/plate. For the same compound, the “Number of His+ revertants colonies/plate” value ([1]; TA 98, 500 μM alone (negative control), NaN3 tables) was 27.3 ± 2.0 colonies/plate, the “Number of His+ revertants colonies/plate” value ([2]; Salmonella typhimurium) was 175.3 ± 14.3 colonies/plate and the “Number of His+ revertants colonies/plate” value ([2]; TA 100, 50 μM alone (negative control), 2AF tables) was 136.0 ± 11.7 colonies/plate. For the same compound, the “Number of His+ revertants colonies/plate” value ([2]; TA 100, 50 μM alone (negative control), BP tables) was 136.0 ± 11.7 colonies/plate, the “Number of His+ revertants colonies/plate” value ([2]; TA 100, 50 μM alone (negative control), MMS tables) was 189.7 ± 12.0 colonies/plate and the “Number of His+ revertants colonies/plate” value ([2]; TA 100, 50 μM alone (negative control), NaN3 tables) was 189.7 ± 12.0 colonies/plate. The “Number of His+ revertants colonies/plate” value ([2]; TA 100, 100 μM alone (negative control), 2AF tables) was 162.7 ± 15.0 colonies/plate, the “Number of His+ revertants colonies/plate” value ([2]; TA 100, 100 μM alone (negative control), BP tables) was 162.7 ± 15.0 colonies/plate and the “Number of His+ revertants colonies/plate” value ([2]; TA 100, 100 μM alone (negative control), MMS tables) was 181.0 ± 7.4 colonies/plate. For the same compound, the “Number of His+ revertants colonies/plate” value ([2]; TA 100, 100 μM alone (negative control), NaN3 tables) was 181.0 ± 7.4 colonies/plate, the “Number of His+ revertants colonies/plate” value ([2]; TA 100, 250 μM alone (negative control), BP tables) was 175.3 ± 14.3 colonies/plate and the “Number of His+ revertants colonies/plate” value ([2]; TA 100, 250 μM alone (negative control), MMS tables) was 165.3 ± 5.4 colonies/plate. For the same compound, the “Number of His+ revertants colonies/plate” value ([2]; TA 100, 250 μM alone (negative control), NaN3 tables) was 165.3 ± 5.4 colonies/plate, the “Number of His+ revertants colonies/plate” value ([2]; TA 100, 500 μM alone (negative control), 2AF tables) was 191.0 ± 15.0 colonies/plate and the “Number of His+ revertants colonies/plate” value ([2]; TA 100, 500 μM alone (negative control), BP tables) was 191.0 ± 15.0 colonies/plate. The “Number of His+ revertants colonies/plate” value ([2]; TA 100, 500 μM alone (negative control), MMS tables) was 187.7 ± 9.8 colonies/plate, the “Number of His+ revertants colonies/plate” value ([2]; TA 100, 500 μM alone (negative control), NaN3 tables) was 187.7 ± 9.8 colonies/plate and the “BP-induced DNA adducts” value ([3]; 20 μM test compound) was 42.9 ± 16 DNA adducts/10^8 nucleotides. For the same compound, the “BP-induced DNA adducts” value ([3]; 40 μM test compound) was 7.2 ± 6.1 DNA adducts/10^8 nucleotides, the “inhibition of BP-induced DNA adducts” value ([3]; 40 μM, BP with rat liver microsomes, cofactors, DNA) was 97% and the inhibition at 50 µM ([4]; read-out: % inhibition of mutagenicity, TA 100, 50 μM + 2AF, S9) was 22.4%. For the same compound, the inhibition at 50 µM ([4]; read-out: % inhibition of mutagenicity, TA 100, 50 μM + BP, S9) was 30.6%, the inhibition at 50 µM ([4]; read-out: % inhibition of mutagenicity, TA 100, 50 μM + MMS, no S9) was 13.8% and the inhibition at 50 µM ([4]; read-out: % inhibition of mutagenicity, TA 100, 50 μM + NaN3, no S9) was 11.3%. For the same compound, the inhibition at 100 µM ([4]; read-out: % inhibition of mutagenicity, TA 100, 100 μM + 2AF, S9) was 43.8%, the inhibition at 100 µM ([4]; read-out: % inhibition of mutagenicity, TA 100, 100 μM + BP, S9) was 48.3% and the inhibition at 100 µM ([4]; read-out: % inhibition of mutagenicity, TA 100, 100 μM + MMS, no S9) was 30.8%. It also gave an inhibition at 100 µM ([4]; read-out: % inhibition of mutagenicity, TA 100, 100 μM + NaN3, no S9) of 33.1%, an inhibition at 250 µM ([4]; read-out: % inhibition of mutagenicity, TA 100, 250 μM + BP, S9) of 64% and an inhibition at 250 µM ([4]; read-out: % inhibition of mutagenicity, TA 100, 250 μM + MMS, no S9) of 45.3%. The inhibition at 250 µM ([4]; read-out: % inhibition of mutagenicity, TA 100, 250 μM + NaN3, no S9) was 54.6%, the inhibition at 500 µM ([4]; read-out: % inhibition of mutagenicity, TA 100, 500 μM + 2AF, S9) was 83.1% and the inhibition at 500 µM ([4]; read-out: % inhibition of mutagenicity, TA 100, 500 μM + BP, S9) was 84.5%. The inhibition at 500 µM ([4]; read-out: % inhibition of mutagenicity, TA 100, 500 μM + MMS, no S9) was 66% and the inhibition at 500 µM ([4]; read-out: % inhibition of mutagenicity, TA 100, 500 μM + NaN3, no S9) was 74.3%.
